Read-outs that look alike come from different tables or passages of the source. Where a SMILES comes first, the peptide text is derived from it. Side-chain parts run from the residue outwards. [ ]: non-standard residue; d: D form. The star is where a group is joined. Nicotinoyl = O=C(c1cccnc1)*; Nle = CCCC[C@H](N)C(=O)O; Cbz = O=C(OCc1ccccc1)*
Tests used:
AT4 receptor [1] = assay: Competition for [125I]Ang IV binding on prefrontal cortical brain sections (in vitro receptor autoradiography); design: species or system Macaca fascicularis; conditions: for IC50: monkey prefrontal cortical sections, read-out: IC50 for competing for [125I]Ang IV binding; for Competition for [125I]Ang IV binding: even at concentrations of 10 mM
[2] = system: embryonic chicken sympathetic neurons
AT4 receptor sites = assay: Cross-displacement of [125I]LVV-haemorphin-7 and [125I]Ang IV binding on sheep hindbrain sections
Method: Sheep hindbrain sections were used to compare the distribution of ^125I-LVV-haemorphin-7 binding and AT4 receptor sites. Sections at 10 μm thickness were equilibrated to 22° C. (30 min), and then preincubated for 30 min in an isotonic buffer containing 50 mM Tris, 150 mM sodium chloride, 5 mM EDTA, 100 μM phenylmethylsulfonyl fluoride, 20 μM bestatin and 0.1% bovine serum albumin, pH 7.4, before a further 2 h incubation in the same buffer containing 2.84 μCi of [^125I]LVV-haemorphin-7 or [125I]Ang IV (approximately 140 pM). The binding of the radioligands was cross-displaced with either 1 μM unlabelled LVV-haemorphin-7 or Ang IV. After incubation, the sections were given three 2 min washes in buffer at 4° C., and exposed to X-ray film for 14 to 28 d.

AT4 receptor [3] = conditions: literature; mediated via the AT4 receptor; cited from earlier work
[4] = target: T1, embryonic chicken Ang IV binding site (AT4 receptor) (Gallus gallus, UniProt F1NNE7); assay: Competition for [125I]Ang IV binding to E13 chicken chorioallantoic membranes; conditions: for Concentration at which only 50% of the [125I]Ang IV sites were competed for: E13 chicken CAM, only 50% of the sites
T1 sequence (F1NNE7 1-1024): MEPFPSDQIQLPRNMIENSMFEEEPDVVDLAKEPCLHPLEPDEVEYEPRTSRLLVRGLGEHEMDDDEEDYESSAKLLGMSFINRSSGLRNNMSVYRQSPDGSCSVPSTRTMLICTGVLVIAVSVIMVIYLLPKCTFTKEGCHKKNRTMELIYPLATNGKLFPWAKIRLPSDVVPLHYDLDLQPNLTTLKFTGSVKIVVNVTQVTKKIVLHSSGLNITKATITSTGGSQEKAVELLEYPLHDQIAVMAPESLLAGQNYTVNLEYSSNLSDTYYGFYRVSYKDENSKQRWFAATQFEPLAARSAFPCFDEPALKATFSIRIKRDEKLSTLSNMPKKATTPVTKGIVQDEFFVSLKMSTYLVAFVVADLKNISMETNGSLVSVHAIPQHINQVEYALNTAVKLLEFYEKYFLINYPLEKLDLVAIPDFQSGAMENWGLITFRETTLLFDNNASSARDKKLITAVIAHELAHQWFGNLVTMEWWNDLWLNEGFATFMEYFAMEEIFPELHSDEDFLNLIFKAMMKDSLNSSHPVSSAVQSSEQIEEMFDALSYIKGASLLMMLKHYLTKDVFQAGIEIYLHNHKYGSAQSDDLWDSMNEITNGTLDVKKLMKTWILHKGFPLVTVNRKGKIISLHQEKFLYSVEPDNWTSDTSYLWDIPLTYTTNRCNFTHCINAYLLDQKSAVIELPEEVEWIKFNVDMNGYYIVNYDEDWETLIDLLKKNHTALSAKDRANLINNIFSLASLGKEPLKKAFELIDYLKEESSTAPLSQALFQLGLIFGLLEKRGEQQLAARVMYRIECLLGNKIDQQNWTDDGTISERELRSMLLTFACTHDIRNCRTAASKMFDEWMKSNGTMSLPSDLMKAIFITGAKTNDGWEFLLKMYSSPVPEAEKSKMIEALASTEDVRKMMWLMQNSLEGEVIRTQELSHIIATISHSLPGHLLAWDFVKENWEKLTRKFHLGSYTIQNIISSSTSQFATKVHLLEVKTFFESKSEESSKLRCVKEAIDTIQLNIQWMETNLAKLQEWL

AT4 receptor [5] = target: T2, AT4 receptor (Ovis aries, UniProt A0ACI6PQ17); assay: Competition for [125I]LVV-haemorphin-7 binding to sheep cerebellar cortical membranes; conditions: read-out: IC50 for competing for 125I-LVV-haemorphin-7 binding
T2 sequence (A0ACI6PQ17 1-1050): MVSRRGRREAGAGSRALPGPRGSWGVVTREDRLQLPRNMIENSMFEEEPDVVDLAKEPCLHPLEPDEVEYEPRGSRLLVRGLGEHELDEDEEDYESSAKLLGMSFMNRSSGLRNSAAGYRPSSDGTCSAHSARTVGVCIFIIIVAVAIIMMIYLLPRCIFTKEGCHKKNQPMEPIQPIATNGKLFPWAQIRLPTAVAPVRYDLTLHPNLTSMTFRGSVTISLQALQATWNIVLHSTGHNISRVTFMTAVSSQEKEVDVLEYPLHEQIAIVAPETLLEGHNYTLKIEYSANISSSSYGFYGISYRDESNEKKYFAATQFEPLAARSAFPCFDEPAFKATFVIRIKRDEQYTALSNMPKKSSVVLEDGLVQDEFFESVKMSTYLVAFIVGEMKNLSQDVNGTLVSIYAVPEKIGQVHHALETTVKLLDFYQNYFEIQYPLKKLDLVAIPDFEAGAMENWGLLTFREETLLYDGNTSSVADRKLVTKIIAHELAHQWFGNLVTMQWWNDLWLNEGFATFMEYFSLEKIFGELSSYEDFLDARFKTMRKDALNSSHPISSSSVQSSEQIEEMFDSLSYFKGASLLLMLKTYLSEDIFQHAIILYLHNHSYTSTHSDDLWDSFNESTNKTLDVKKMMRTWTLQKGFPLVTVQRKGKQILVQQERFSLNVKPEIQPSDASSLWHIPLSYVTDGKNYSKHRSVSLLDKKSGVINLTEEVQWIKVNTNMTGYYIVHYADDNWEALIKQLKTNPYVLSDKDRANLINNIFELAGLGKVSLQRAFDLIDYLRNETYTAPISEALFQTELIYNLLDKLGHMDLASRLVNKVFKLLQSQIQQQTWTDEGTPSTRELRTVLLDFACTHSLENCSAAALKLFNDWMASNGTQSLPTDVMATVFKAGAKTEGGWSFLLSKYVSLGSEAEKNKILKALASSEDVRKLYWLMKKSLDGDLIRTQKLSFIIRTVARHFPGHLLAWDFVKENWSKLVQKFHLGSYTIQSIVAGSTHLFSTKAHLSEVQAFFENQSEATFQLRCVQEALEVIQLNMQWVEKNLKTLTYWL

AT4 receptor [6] = target: T2, AT4 receptor; assay: Competition for [125I]Ang IV binding to sheep cerebellar cortical membranes
[7] = target: Ang IV binding site (AT4 receptor) (Homo sapiens, UniProt Q9UIQ6); conditions: literature; cited from earlier work
Sequence of Ang IV binding site (AT4 receptor) (Q9UIQ6 whole entry): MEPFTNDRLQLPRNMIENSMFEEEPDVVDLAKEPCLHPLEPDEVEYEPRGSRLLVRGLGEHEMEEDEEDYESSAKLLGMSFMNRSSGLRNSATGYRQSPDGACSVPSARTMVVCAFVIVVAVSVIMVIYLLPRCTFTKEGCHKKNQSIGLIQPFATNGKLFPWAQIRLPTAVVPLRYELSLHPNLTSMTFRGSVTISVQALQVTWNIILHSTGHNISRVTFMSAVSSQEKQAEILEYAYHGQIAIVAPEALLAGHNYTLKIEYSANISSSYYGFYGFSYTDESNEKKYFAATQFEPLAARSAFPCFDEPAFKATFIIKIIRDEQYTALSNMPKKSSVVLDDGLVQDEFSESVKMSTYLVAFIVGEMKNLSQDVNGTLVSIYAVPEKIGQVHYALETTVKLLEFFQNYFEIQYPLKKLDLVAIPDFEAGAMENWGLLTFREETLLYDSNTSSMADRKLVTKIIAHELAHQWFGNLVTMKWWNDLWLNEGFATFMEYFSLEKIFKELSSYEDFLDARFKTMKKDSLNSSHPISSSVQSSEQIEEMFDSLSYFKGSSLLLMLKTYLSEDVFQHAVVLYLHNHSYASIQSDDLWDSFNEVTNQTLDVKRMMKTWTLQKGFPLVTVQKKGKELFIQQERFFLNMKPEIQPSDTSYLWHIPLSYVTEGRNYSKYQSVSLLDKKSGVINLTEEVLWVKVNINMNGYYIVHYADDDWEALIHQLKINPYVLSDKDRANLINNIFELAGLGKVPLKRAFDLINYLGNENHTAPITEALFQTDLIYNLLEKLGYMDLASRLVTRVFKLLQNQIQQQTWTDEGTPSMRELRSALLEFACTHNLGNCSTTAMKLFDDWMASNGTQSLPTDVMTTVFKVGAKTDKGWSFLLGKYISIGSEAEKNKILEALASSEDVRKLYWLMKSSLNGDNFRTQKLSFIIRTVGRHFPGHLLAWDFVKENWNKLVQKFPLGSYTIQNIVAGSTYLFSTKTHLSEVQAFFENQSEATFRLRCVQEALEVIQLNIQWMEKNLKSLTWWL

[8] = system: scopolamine-induced amnesia; conditions: rat, in vivo
[9] = system: scopolamine-induced amnesia
[10] = 10^−8 M Ang II, test substance 1 μM
[11] = 10^−8 M Ang IV, test substance 1 μM

Compound: CC[C@H](C)[C@H](NC(=O)[C@H](Cc1ccc(O)cc1)NC(=O)[C@@H](NC(=O)[C@@H](N)CCCNC(=N)N)C(C)C)C(=O)N[C@@H](Cc1c[nH]cn1)C(=O)N1CCC[C@H]1C(=O)N[C@@H](Cc1ccccc1)C(=O)O [Ang III]
- IC50 (AT4 receptor [1]): 80 nM

Compound: CC[C@H](C)[C@H](NC(=O)[C@H](Cc1ccc(O)cc1)NC(=O)[C@@H](NC(=O)[C@H](CCCNC(=N)N)NC(=O)[C@@H](N)CC(=O)O)C(C)C)C(=O)N[C@@H](Cc1c[nH]cn1)C(=O)N1CCC[C@H]1C(=O)N[C@@H](Cc1ccccc1)C(=O)O [Ang II]
- IC50 (AT4 receptor [1]): 730 nM
- Inhibition of neurite outgrowth [2]: 25%

Compound: CC[C@H](C)[C@H](NC(=O)[C@H](Cc1ccc(O)cc1)NC(=O)[C@@H](N)C(C)C)C(=O)N[C@@H](Cc1cnc[nH]1)C(=O)N1CCC[C@H]1C(=O)N[C@@H](Cc1ccccc1)C(=O)O [Ang IV, NH2-Val Tyr Ile His Pro Phe-COOH]
- Displacement of [125I]LVV-haemorphin-7 and [125I]Ang IV binding (AT4 receptor sites; 1 μM unlabelled ligand, sheep hindbrain sections): displaced
- Concentration of maximal effect on neurite outgrowth [2]: 10^−9 M
- Threshold concentration for inhibition of neurite outgrowth [2]: 10^−11 M
- IC50 ([2]; read-out: Half maximal inhibition of neurite outgrowth): 0.1 nM
- Effect on memory in a passive avoidance task (AT4 receptor [3]): improve memory retention and retrieval

Compound: CC[C@H](C)[C@H](NC(=O)[C@@H]1CCCN1C(=O)[C@H](Cc1c[nH]cn1)NC(=O)[C@H](CCCCNC(=O)[C@H](CCCNC(=N)N)NC(=O)OCc1ccccc1)NC(=O)[C@H](Cc1ccc(O)cc1)NC(=O)c1cccnc1)C(=O)O [CGP 42112] (Nicotinoyl-YK([Arg-Cbz])HPI-OH; N-terminus and C-terminus assumed)
- Concentration at which only 50% of the [125I]Ang IV sites were competed for [4]: 0.5 µM
- Effect on the inhibition of neurite outgrowth by Ang II [2]: ineffective
- Effect on the inhibition of neurite outgrowth by Ang IV [2]: no effect

Compound: CCCC[C@H](N)C(=O)N[C@@H](Cc1ccc(O)cc1)C(=O)N[C@H](C(N)=O)[C@@H](C)CC [Nle^1-Y-I-amide] (H-[Nle]-Tyr-Ile-NH2; N-terminus assumed)
- Effect on the inhibition of neurite outgrowth by Ang IV [2]: totally reversed

Compound: Cc1cc(Cn2cnc3c2C[C@@H](C(=O)O)N(C(=O)C(c2ccccc2)c2ccccc2)C3)ccc1N(C)C [PD 123319]
- Competition for [125I]Ang IV binding (AT4 receptor [1]): inactive
- Inhibition of [125I]Ang IV binding ([4]; at concentrations up to 10 μM): inactive
- IC50 (AT4 receptor [5]; sheep cerebellar cortical membranes): 46000 nM
- Competition for [125I]Ang IV binding (AT4 receptor [6]; at 10 μM): inactive
- Effect on the inhibition of neurite outgrowth by Ang II [2, 10]: ineffective
- Effect on the inhibition of neurite outgrowth by Ang IV [2, 11]: no effect
- Affinity of the Ang IV site for the ligand [7]: low to very low affinity

Compound: CC[C@H](C)[C@H](NC(=O)[C@@H]1CCCN1C(=O)[C@H](Cc1c[nH]cn1)NC(=O)[C@@H](NC(=O)[C@H](Cc1ccc(O)cc1)NC(=O)[C@@H](NC(=O)[C@H](CCCNC(=N)N)NC(=O)CNC)C(C)C)[C@@H](C)CC)C(=O)O [[Sar^1Ile^8]Ang II]
- Concentration at which only 50% of the [125I]Ang IV sites were competed for [4]: 10 µM
- Effect on the inhibition of neurite outgrowth by Ang II [2]: ineffective
- Effect on the inhibition of neurite outgrowth by Ang IV [2]: no effect
- Affinity of the Ang IV site for the ligand [7]: low to very low affinity

Compound: CCCCc1nc(Cl)c(CO)n1Cc1ccc(-c2ccccc2-c2nn[nH]n2)cc1 [losartan]
- Competition for [125I]Ang IV binding (AT4 receptor [1]): inactive
- Effect on the inhibition of neurite outgrowth by Ang II [2, 10]: ineffective
- Effect on the inhibition of neurite outgrowth by Ang IV [2, 11]: no effect
- Affinity of the Ang IV site for the ligand [7]: low to very low affinity

Compound: CN1[C@@H]2C[C@@H](OC(=O)[C@H](CO)c3ccccc3)C[C@H]1[C@@H]1O[C@@H]12 [scopolamine]
- Latency in finding the platform after amnesic agent [8]: significantly increased latencies
- Passive avoidance performance after amnesic agent ([9]; 70 nmol intracerebroventricularly followed by saline): learning and memory deficits

Compound: LVVYPWTQRF [LVV-haemorphin-7]
- IC50 (AT4 receptor [5]): 5.6 nM
- IC50 (AT4 receptor [6]; read-out: IC50 for competing for [125I]Ang IV binding): 2 nM
- Displacement of [125I]LVV-haemorphin-7 and [125I]Ang IV binding (AT4 receptor sites): displaced
- Effect on scopolamine-induced latency in finding the platform [8]: totally reversed
- Effect on scopolamine-induced amnesia (latency to enter dark compartment) ([9]; 70 nmol scopolamine followed by 1.0 nmol peptide, intracerebroventricularly): completely reversed
- Passive avoidance performance, substance alone ([9]; saline followed by 1.0 nmol, intracerebroventricularly): performed worse than the scopolamine-treated rats

— US7026280B2, “LV V-Haemorphin-7 neuroactive peptide and methods of use” (Howard Florey Institute of Experimental Physiology, priority 1996, dated 2006)
